Data taken from patent publication EP2351758B1, “METAL COMPLEXES, A METHOD FOR PREPARING SAME, RADIOPHAR[…] BASED THEREON” (Zakrytoe Aktsionernoe Obschestvo "Farm-Sintez", priority 2008, dated 2010).
Like-named read-outs stand apart in the source and are kept apart here.

Legend:
[1] = 3 hours after administration, cited from earlier work
[2] = Pharmacokinetics (distribution in organs and tissues) in intact female rats after intravenous introduction; assay type: in vivo; conditions: for Blood / Femur / Kidneys / Liver / Skeleton / Stomach / Urinary bladder (1, 3 h) / Excretion (5, 24): intact female rats, i.v.
Experimental: (§1) The experiments were run on the intact scrub albino rats with modeled osseous pathology. The osseous pathology was imitated by the femur fracture.
(§2) To prepare the composition, 5.0 ml of the sodium pertechnetate ^99mTc from the technetium generator (FSP 42-0225-4528-03, FSP 42-0018-2694-02) were injected into the lyophilizate vial by puncturing the rubber stopper with a syringe needle; then the vial was agitated and cured 20 minutes. The 0.2 ml volume of the composition was injected into the caudal vein. 1, 3, 5, and 24 hours after injection the animals were devitalized by decapitation; then the samples of blood, liver, kidneys, stomach, right and left femurs, urinary bladder with contents were taken. The radionuclide in organs and tissues was determined by the direct radiometry.
(§3) The statistical treatment used the Student's method.

[3] = Pharmacokinetics (distribution in organs and tissues) in female rats with modeled osseous pathology (femur fracture) after intravenous introduction; assay type: in vivo; conditions: for Blood / Femur, fractured / Femur, normal / Kidneys / Liver / Skeleton / Stomach / Urinary bladder (1, 3 h) / Excretion (5, 24): female rats with modeled osseous pathology, i.v.; for Delayed retention index: ratio of concentration in femur with modeled pathology to healthy femur
Experimental: as §1, §2
The delayed retention index was determined as the ratio of division of the composition concentration in the femoral bone with the modeled osseous pathology and in the healthy femoral bone.
as §3

[4] = intact animals, 3 hours after introduction

## 99Tcm labeled zoledronate (ZL) [known solution (Wang et al)]
[1]; known solution (Wang et al)
  skeletal retention of RM: 34.2%
[1]; prior metal complex (Wang et al)
  retention level in the liver: 13.4 % of the doze injected

## Technetium-99m in form of complex with zoledronic acid [zoledronic acid, 99mTc]
[2]; 3 hours after administration
  retention level in the liver: 1.0 % of the doze injected
[2]; 3 hours after the administration
  skeletal retention of RM: 47.3 % of the dose injected
[2]; 5 hours after the study start
  activity level in blood: trace
[2]; [4]
  excretion: 30%
  retention in the skeleton: 47%
[2]; intact animals, intravenous injection, in one hour
  injected activity localizes in the skeleton: up to 48 % of the injected activity
[2]; intact animals, intravenous injection, in one hour, 60 min
  excreted from the organism with the urine: 45%
[2]; 1 h
  Blood: 1.7 ± 0.27 % dose/organ
  Femur: 1.8 ± 0.16 % dose/organ
  Kidneys: 1.3 ± 0.17 % dose/organ
  Liver: 0.8 ± 0.12 % dose/organ
  Skeleton: 48.1 ± 4.36 % dose/organ
  Stomach: 0.1 ± 0.03 % dose/organ
  Urinary bladder (1, 3 h): 45.4 ± 4.03 % dose/organ
[2]; 3 h
  Blood: 0.9 ± 0.38 % dose/organ
  Femur: 1.9 ± 0.35 % dose/organ
  Kidneys: 0.9 ± 0.21 % dose/organ
  Liver: 1.0 ± 0.27 % dose/organ
  Skeleton: 47.3 ± 2.89 % dose/organ
  Stomach: 0.1 ± 0.01 % dose/organ
  Urinary bladder (1, 3 h): 30.1 ± 4.41 % dose/organ
[2]; 5 h
  Blood: 0.4 ± 0.03 % dose/organ
  Excretion (5, 24): 52.4 ± 2.80 % dose/organ
  Femur: 1.6 ± 0.11 % dose/organ
  Kidneys: 1.2 ± 0.13 % dose/organ
  Liver: 0.6 ± 0.11 % dose/organ
  Skeleton: 42.9 ± 2.93 % dose/organ
  Stomach: 0.1 ± 0.04 % dose/organ
[2]; 24 h
  Blood: traces
  Excretion (5, 24): 39.1 ± 5.00 % dose/organ
  Femur: 1.8 ± 0.06 % dose/organ
  Kidneys: 0.6 ± 0.32 % dose/organ
  Liver: 0.2 ± 0.13 % dose/organ
  Skeleton: 49.6 ± 1.77 % dose/organ
  Stomach: 0.3 ± 0.05 % dose/organ
[3]; 1 h
  Blood: 1.7 ± 0.71 % dose/organ
  Femur, fractured: 4.2 ± 1.04 % dose/organ
  Femur, normal: 2.1 ± 0.20 % dose/organ
  Kidneys: 1.8 ± 0.83 % dose/organ
  Liver: 1.7 ± 0.58 % dose/organ
  Skeleton: 57.7 ± 5.54 % dose/organ
  Stomach: 0.4 ± 0.03 % dose/organ
  Urinary bladder (1, 3 h): 35.1 ± 10.53 % dose/organ
  Delayed retention index: 2.0
[3]; 3 h
  Blood: 2.0 ± 0.81 % dose/organ
  Femur, fractured: 4.0 ± 1.34 % dose/organ
  Femur, normal: 1.9 ± 0.42 % dose/organ
  Kidneys: 1.4 ± 0.68 % dose/organ
  Liver: 1.1 ± 0.42 % dose/organ
  Skeleton: 46.6 ± 7.81 % dose/organ
  Stomach: 0.2 ± 0.09 % dose/organ
  Urinary bladder (1, 3 h): 44.8 ± 3.89 % dose/organ
  Delayed retention index: 2.1
[3]; 5 h
  Blood: 0.5 ± 0.01 % dose/organ
  Excretion (5, 24): 43.4 ± 5.05 % dose/organ
  Femur, fractured: 3.1 ± 0.70 % dose/organ
  Femur, normal: 1.9 ± 0.20 % dose/organ
  Kidneys: 0.9 ± 0.06 % dose/organ
  Liver: 1.0 ± 0.05 % dose/organ
  Skeleton: 49.9 ± 5.44 % dose/organ
  Stomach: 0.4 ± 0.05 % dose/organ
  Delayed retention index: 1.7
[3]; 24 h
  Blood: 0.7 ± 0.01 % dose/organ
  Excretion (5, 24): 52.5 ± 10.86 % dose/organ
  Femur, fractured: 2.5 ± 0.05 % dose/organ
  Femur, normal: 1.4 ± 0.40 % dose/organ
  Kidneys: 0.5 ± 0.08 % dose/organ
  Liver: 0.5 ± 0.09 % dose/organ
  Skeleton: 38.0 ± 11.02 % dose/organ
  Stomach: traces
  Delayed retention index: 1.9
